# Residues, ends and D or L forms follow the SMILES beside them.
# Molecular target: T1, calmodulin (CaM) (Homo sapiens, UniProt P0DP23)
# T1 construct: made in house
# Assay: Steady-state fluorescence anisotropy (FA) binding assay, peptide titrated with CaM
# Settings: carboxyfluorescein-labelled peptide titrated with CaM, 25 mM Tris-HCl pH 7.5, 250 mM NaCl, 200 µM CaCl2, 25 °C, value (SD), anisotropy measured six times per concentration, read-out: KD of peptide/CaM complex, CaM/Ca2+ KD (SD)
# Protocol: First, we studied whether M4nt_WT and M4ct_WT are able to bind CaM and S100A1 at all. The carboxyfluorescein-labelled M4nt_WT and M4ct_WT peptides were titrated with increasing amounts of CaM or S100A1, and FA was measured for each point of titration. The FA increased due to a slower rotational diffusion of the formed complexes, and the fraction bound (Fb) of M4nt_WT and M4ct_WT could be calculated (Figure 2A, Figure 3A, Figure 4A, Figure 5A). Since the specific interactions of M4nt_WT and M4ct_WT with CaM/S100A1 were calcium-dependent, all samples were measured in the presence of 200-μM CaCl2. The fluorescence lifetimes τi of all peptides and their complexes (and all the following characterised peptides/complexes) were constant during all the experiments, with the values close to 3 ns. […] Overall, the FA results indicated the high affinity of M4nt_WT and M4ct_WT peptides to CaM and S100A1. Both M4nt_WT and M4ct_WT peptides thus seemed to represent potential binding epitopes on TRPM4.
# The experiments were performed on a K2 spectrofluorometer (ISS, Inc., Champaign, IL, USA) at 25 °C in a cuvette with a 2-mm path length. […] Fluorescence was excited at 490 nm, and polarised emission components III and I⊥, required for the construction of the emission anisotropy, were acquired and averaged quasi-simultaneously at 525 nm by repetitive switching of the emission polariser. […] The anisotropy values r were calculated from the fluorescence intensities in the parallel (III) and perpendicular (I⊥) directions according to the relationship r = (III − GI⊥)/(III + 2GI⊥), where G is a factor correcting for different transmittance of the detection channel for the two measured polarisations (III and I⊥). The G factor was determined in a separate experiment. The measurements were repeated six times for each ligand concentration; the mean anisotropy value was calculated and used for further analysis. […] The Q was evaluated for every binding experiment from the ratio of the fluorescence lifetimes of the bound to the free M4nt, M4ct or PIP2: Q = τbound/τfree. […]
row,Kd [µM],Compound
1,27.2,CC(C)C[C@H](NC(=O)[C@@H]1CCCN1C(=O)[C@H](CS)NC(=O)[C@H](CCCNC(=N)N)NC(=O)[C@H](CCCNC(=N)N)NC(=O)[C@H](CC(C)C)NC(=O)[C@H](CC(C)C)NC(=O)[C@H](CC(C)C)NC(=O)[C@H](CCCNC(=N)N)NC(=O)[C@H](C)NC(=O)[C@H](C)NC(=O)[C@H](CCCNC(=N)N)NC(=O)[C@@H](NC(=O)[C@H](CCC(=O)O)NC(=O)[C@H](CO)NC(=O)[C@H](CO)NC(=O)[C@H](C)NC(=O)[C@H](Cc1ccc(O)cc1)NC(=O)[C@H](CS)NC(=O)[C@H](CCC(=O)O)NC(=O)CNC(=O)[C@@H](N)Cc1ccccc1)C(C)C)C(=O)O [M4nt_R632A] (H-FGECYASSEVRAARLLLRRCPL-OH)
2,80,CC(C)C[C@H](NC(=O)[C@@H]1CCCN1C(=O)[C@H](CS)NC(=O)[C@H](C)NC(=O)[C@H](C)NC(=O)[C@H](CC(C)C)NC(=O)[C@H](CC(C)C)NC(=O)[C@H](CC(C)C)NC(=O)[C@H](C)NC(=O)[C@H](C)NC(=O)[C@H](C)NC(=O)[C@H](CCCNC(=N)N)NC(=O)[C@@H](NC(=O)[C@H](CCC(=O)O)NC(=O)[C@H](CO)NC(=O)[C@H](CO)NC(=O)[C@H](CCCNC(=N)N)NC(=O)[C@H](Cc1ccc(O)cc1)NC(=O)[C@H](CS)NC(=O)[C@H](CCC(=O)O)NC(=O)CNC(=O)[C@@H](N)Cc1ccccc1)C(C)C)C(=O)O [M4nt_R640A/R644A/R645A] (H-FGECYRSSEVRAAALLLAACPL-OH)
3,17,CC(C)C[C@H](NC(=O)[C@@H]1CCCN1C(=O)[C@H](CS)NC(=O)[C@H](CCCNC(=N)N)NC(=O)[C@H](CCCNC(=N)N)NC(=O)[C@H](CC(C)C)NC(=O)[C@H](CC(C)C)NC(=O)[C@H](CC(C)C)NC(=O)[C@H](C)NC(=O)[C@H](C)NC(=O)[C@H](C)NC(=O)[C@H](CCCNC(=N)N)NC(=O)[C@@H](NC(=O)[C@H](CCC(=O)O)NC(=O)[C@H](CO)NC(=O)[C@H](CO)NC(=O)[C@H](CCCNC(=N)N)NC(=O)[C@H](Cc1ccc(O)cc1)NC(=O)[C@H](CS)NC(=O)[C@H](CCC(=O)O)NC(=O)CNC(=O)[C@@H](N)Cc1ccccc1)C(C)C)C(=O)O [M4nt_R640A] (H-FGECYRSSEVRAAALLLRRCPL-OH)

# From publication PMC7352223, “Mapping of CaM, S100A1 and PIP2-Binding Epitopes in the Intracellular N- and C-Termini of TRPM4” (International Journal of Molecular Sciences, 2020)
